Patent US20090170762A1, “Treatment of Diabetes Related Obesity” (UUTech Limited, priority 2005, published 2009)
Ends that are not written are not given here. * marks the point of attachment. Palmitoyl = CCCCCCCCCCCCCCCC(=O)*

Tests used:
DPP-IV = DPP-IV (Homo sapiens, UniProt P27487); test: Degradation of GIP and Glu3-substituted GIP analogs by DPP-IV (HPLC); assay type: in vitro ADME; settings: for half-life at 2 μm: DPP-IV enzyme (5 mU) in buffer, pH 7.8, incubation with DPP-IV, unit not given (time points in hrs), read-out: Estimated Half-Life (converted); for Intact Peptide Remaining (%) 0 hrs. / remaining at 2 h, 2 μm / remaining at 4 h, 2 μm / remaining at 8 h, 2 μm: incubation with DPP-IV (5 mU), 37°C; for Intact Peptide Remaining (%) 0 hrs.: pH 7.8, 0 hrs; for remaining at 2 h, 2 μm / remaining at 4 h, 2 μm / remaining at 8 h, 2 μm: isolated DPP-IV enzyme (5 mU); for remaining at 2 h, 2 μm: pH 7.8, 2 hrs, read-out: Intact Peptide Remaining (%) 2 hrs.; for remaining at 4 h, 2 μm: pH 7.8, 4 hrs, read-out: Intact Peptide Remaining (%) 4 hrs.; for remaining at 8 h, 2 μm: pH 7.8, 8 hrs, read-out: Intact Peptide Remaining (%) 8 hrs.
human GIP-R = target: T1, human GIP-R (Homo sapiens, UniProt P48546); test: Cyclic AMP production in GIP-R transfected CHL cells; assay type: cell-based; settings: for inhibition of GIP-stimulated cAMP production: in presence of GIP (10^-7 m)
T1 construct: expressed in transfected cells; host or cells: Chinese Hamster Lung (CHL) fibroblast cells, stably transfected
T1 sequence (P48546 22-466): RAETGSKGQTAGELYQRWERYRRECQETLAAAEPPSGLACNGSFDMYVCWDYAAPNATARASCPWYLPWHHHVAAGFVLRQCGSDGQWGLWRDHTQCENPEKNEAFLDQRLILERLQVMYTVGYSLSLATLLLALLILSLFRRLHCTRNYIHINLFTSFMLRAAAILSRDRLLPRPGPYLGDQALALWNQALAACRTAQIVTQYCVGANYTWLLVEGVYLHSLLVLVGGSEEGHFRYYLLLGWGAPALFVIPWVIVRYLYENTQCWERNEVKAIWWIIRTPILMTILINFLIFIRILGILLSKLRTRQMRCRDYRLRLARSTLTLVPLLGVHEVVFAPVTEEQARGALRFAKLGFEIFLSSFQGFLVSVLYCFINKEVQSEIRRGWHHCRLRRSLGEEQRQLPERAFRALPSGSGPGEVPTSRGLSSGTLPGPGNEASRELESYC
Method: Tissue Culture. […] (v/v) fetal bovine serum, 1% (v/v) antibiotics (100 U/ml penicillin, 0.1 mg/ml streptomycin) (all from Gibco, Paisley, Strathclyde, Scotland). BRIN-BD11 cells were cultured in RPMI-1640 tissue culture medium containing 10% (v/v) fetal bovine serum, 1% (v/v) antibiotics (100 U/ml penicillin, 0.1 mg/ml streptomycin) and 11.1 mm glucose. The origin and secretory characteristics of these cells have been described in detail previously (McClenaghan, N. H. et al., 1996, Diabetes 45:1132-1140). The cells were maintained in sterile tissue culture flasks (Corning Glass Works, Sunderland, UK) at 37° C. in an atmosphere of 5% CO2 and 95% air using a LEEC incubator (Laboratory Technical Engineering, Nottingham, UK).
Methods. […] The culture medium was removed and cells subsequently washed twice with 2 ml ice-cold HBS buffer (130 mm NaCl, 20 mm HEPES, 0.9 mm NaHPO4, 0.8 mm MgSO4, 5.4 mm KCl, 1.8 mm CaCl2, 5.6 mm glucose and 25 μm phenol red) (pH 7.4). […] The medium was subsequently removed and the cells lysed with […] of lysing solution (5% TCA, 3% SDS, 92% H2O, also containing 0.1 mm unlabelled cAMP and 0.1 mm unlabelled ATP) (Sigma, Poole, Dorset, UK). The plates were then left on a shaker at room temperature for 30 minutes and tritiated cAMP formation determined by column chromatography using Dowex and alumina ion exchange columns (BioRad Life Science Research, Alpha Analytical, Larne, UK) as previously described (Gault, V. A. et al 2002, Biochem. J. 367:913-920).

BRIN-BD11 cells = test: Insulin secretion from BRIN-BD11 cells; assay type: cell-based; settings: for Maximal insulin response (% GIP max) / Insulin response in presence of 10^-7 M GIP (% GIP max): BRIN-BD11 cells, 5.6 mm glucose; for Maximal insulin response (% GIP max): 20 min; for Insulin response in presence of 10^-7 M GIP (% GIP max): in presence of 10^-7 M native GIP
Method: Tissue Culture. Chinese Hamster Lung (CHL) fibroblast cells stably transfected with the human GIP-R were cultured in DMEM tissue culture medium containing 10%. (v/v) fetal bovine serum, 1% (v/v) antibiotics (100 U/ml penicillin, 0.1 mg/ml streptomycin) (all from Gibco, Paisley, Strathclyde, Scotland). BRIN-BD11 cells were cultured in RPMI-1640 tissue culture medium containing 10% (v/v) fetal bovine serum, 1% (v/v) antibiotics (100 U/ml penicillin, 0.1 mg/ml streptomycin) and 11.1 mm glucose. The origin and secretory characteristics of these cells have been described in detail previously (McClenaghan, N. H. et al., 1996, Diabetes 45:1132-1140). The cells were maintained in sterile tissue culture flasks (Corning Glass Works, Sunderland, UK) at 37° C. in an atmosphere of 5% CO2 and 95% air using a LEEC incubator (Laboratory Technical Engineering, Nottingham, UK).
Methods. Insulin release from BRIN-BD11 cells was determined by use of cell monolayers as described previously (Gault, V. A. et al. 2002, Biochem. J. 367:913-920). In brief, BRIN-BD11 cells were seeded into 24-well plates (Nunc, Roskilde, Denmark) at a density of 1.5×10^5 cells per well and allowed to attach overnight in RPMI-1640 culture medium at 37° C. Acute tests for insulin secretion were preceded by 40 minutes pre-incubation at 37° C. in 1.0 ml Krebs Ringer Bicarbonate Buffer (KRBB, 115 mm NaCl, 4.7 mm KCl, 1.28 mm CaCl2, 1.2 mM MgSO4, 1.2 mm KH2PO4, 25 mM HEPES and 10 mm NaHCO3; pH 7.4 with NaOH) supplemented with 0.1% (w/v) BSA and 1.1 mM glucose. […] After 20 minutes incubation, the buffer was removed and used for measurement of insulin by radioimmunoassay (Flatt, P. R. and Bailey, C. J., 1981, Diabetologia 5:573-577).

ob/ob mice [1] = test: 14 once-daily injections of GIP analogues in ob/ob mice; assay type: in vivo, mouse; settings: 14 days daily, insulin 50 U/kg
Method: (§1) Animals. Obese diabetic (ob/ob) mice derived from the colony maintained at Aston University, UK (Bailey C. J. et al., 1982, Int. J. Obes. 6:11-21) were used at 14-18 weeks of age. Animals were age-matched, divided into groups and housed individually in an air-conditioned room at 22±2° C. with a 12 hour light: 12 hour dark cycle (08:00-20:00 hr). Drinking water and a standard rodent maintenance diet (Trouw Nutrition, Cheshire, UK) were freely available. All animal experiments were carried out in accordance with the UK Animals (Scientific Procedures) Act 1986.
Methods. […] Intraperitoneal glucose tolerance (18 mmol/kg body wt) and insulin sensitivity (50 U/kg body wt) tests were performed at the end of the study period. Blood samples taken from the cut tip of the tail vein of conscious mice at the times indicated in the Figures were immediately centrifuged using a Beckman microcentrifuge (Beckman Instruments, UK) for 30 seconds at 13,000×g. The resulting plasma was then aliquoted into fresh Eppendorf tubes and stored at −20° C. prior to glucose and insulin determinations.

ob/ob mice [2] = test: Acute antihyperglycaemic and insulin releasing activity with glucose and native GIP in ob/ob mice; assay type: in vivo, mouse; settings: 25 nmol/kg i.p. with GIP and glucose 18 mmol/kg, vs native GIP
Method: as §1
Biochemical analysis. Plasma glucose was assayed by an automated glucose oxidase procedure ([…]) using a Beckman Glucose Analyzer II (Beckman Instruments, Galway, Ireland). Plasma insulin was assayed by radioimmunoassay.
Methods. […] All test solutions were administered in a final volume of 5 ml/kg body weight. Blood samples were collected from the cut tip of the tail vein of conscious mice into chilled fluoride/heparin coated glucose microcentrifuge tubes (Sarstedt, Numbrecht, Germany) immediately prior to injection and at 15, 30 and 60 minutes post injection. Blood samples were immediately centrifuged using a Beckmnan microcentrifuge (Beckman Instruments, High Wycombe, Buckinghamshire, UK) for 30 seconds at 13,000×g. Plasma glucose was assayed using a Beckman Glucose Analyzer n (Beckman Instruments, High Wycombe, Buckinghamshire, UK) (Stevens, J. F., 1971, Clin. Chim. Acta 32:199-201) and plasma insulin was determined by RIA (Flatt, P. R. and Bailey, C. J., 1981, Diabetologia 5:573-577). All animal studies were carried out in accordance with the UK Animals (Scientific Procedures) Act 1986.

Chain of DPP-IV (P27487 whole entry, species assumed): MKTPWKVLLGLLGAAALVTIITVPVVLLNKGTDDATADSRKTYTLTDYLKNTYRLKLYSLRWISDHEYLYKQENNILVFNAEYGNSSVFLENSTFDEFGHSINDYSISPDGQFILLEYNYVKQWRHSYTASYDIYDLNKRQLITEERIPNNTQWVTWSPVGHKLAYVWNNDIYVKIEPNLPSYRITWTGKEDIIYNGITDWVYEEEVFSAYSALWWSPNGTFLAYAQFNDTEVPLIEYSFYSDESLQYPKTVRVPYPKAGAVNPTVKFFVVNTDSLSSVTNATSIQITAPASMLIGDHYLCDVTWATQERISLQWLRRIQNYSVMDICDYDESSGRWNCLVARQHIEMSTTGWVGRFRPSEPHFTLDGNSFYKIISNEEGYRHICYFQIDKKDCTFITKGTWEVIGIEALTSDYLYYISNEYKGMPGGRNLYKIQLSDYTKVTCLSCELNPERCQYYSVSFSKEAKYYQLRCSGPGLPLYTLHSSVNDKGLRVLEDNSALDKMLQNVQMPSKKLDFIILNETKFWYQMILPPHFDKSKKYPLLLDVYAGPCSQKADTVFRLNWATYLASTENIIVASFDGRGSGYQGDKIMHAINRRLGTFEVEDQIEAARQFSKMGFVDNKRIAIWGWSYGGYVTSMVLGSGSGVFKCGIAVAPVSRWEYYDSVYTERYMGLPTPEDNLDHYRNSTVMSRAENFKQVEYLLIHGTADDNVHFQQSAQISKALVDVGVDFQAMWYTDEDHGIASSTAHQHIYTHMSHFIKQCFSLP

Substance | half-life at 2 μm (DPP-IV) [h] | Intact Peptide Remaining (%) 0 hrs. (DPP-IV) [%] | remaining at 2 h, 2 μm (DPP-IV) [%] | remaining at 4 h, 2 μm (DPP-IV) [%] | remaining at 8 h, 2 μm (DPP-IV) [%] | EC50 (human GIP-R) [µM] | cAMP response in presence of 10^-7 M GIP (% GIP max) (human GIP-R; in presence of 10^-7 M native GIP) | inhibition of GIP-stimulated cAMP production (human GIP-R) | Maximal insulin response (% GIP max) (BRIN-BD11 cells) | Insulin response in presence of 10^-7 M GIP (% GIP max) (BRIN-BD11 cells) | hypoglycemic action of insulin (ob/ob mice [1]) | remaining activity at 0.1 µM (human GIP-R; CHL, read-out: cAMP response in presence of 10^-7 M GIP (% GIP max)) [%] | effect on GIP-stimulated insulin secretion (BRIN-BD11 cells; in presence of GIP (10^-7 m)) | plasma glucose and insulin profiles when administered together with native GIP (ob/ob mice [2])
YAPGTFISDYSIAMDK(Palmitoyl)IHQQDFVNWLLAQKGKKNDWKHNITQ [(Pro^3)LysPAL^16GIP] | > 8 | 100 | 100 | 100 | 100 | 0.87 | 63 ± 5 | similarly inhibited | 48 ± 4 | 61 ± 3 | significantly augmented | – | – | –
YAYGTFISDYSIAMDKIHQQDFVNWLLAQKGKKNDWKHNITQ [(Tyr^3)GIP] | 1.5 | 100 | 34.1 ± 4.1 | 6.3 ± 3.1 | 0 | 0.0015 | – | did not significantly inhibit | 75 ± 4 | 93 ± 2 | – | 76 ± 4 | did not significantly affect | significantly inhibited the action of GIP
